According to patent US8906414B1, “Methods and compositions for improving bioavailability of epigallocatechin gallate (EGCG)” (University of South Florida, priority 2009, dated 2014):

Assays:
[1] = Total EGCG concentration in blood and brain tissues after 4 weeks of treatment; format: in vivo; settings: after 4 weeks of treatment at a maximum dose (300 mg/kg)
[2] = Water solubility of EGCG; format: physicochemical
[3] = test system: SweAPP N2a cells; settings: free EGCG (Rezai-Zadeh et al., 2005); cited from earlier work
[4] = oral dose of 800 mg/70 kg/day; cited from earlier work

- total EGCG concentration in blood and brain tissues [1]: 1000 to 1300 ng/mL
- water solubility [2]: poorly water soluble
SMILES: O=C(O[C@@H]1Cc2c(O)cc(O)cc2O[C@@H]1c1cc(O)c(O)c(O)c1)c1cc(O)c(O)c(O)c1 [EGCG, (−)-epigallocatechin-3-gallate]
- EGCG concentration necessary for promoting APP α-secretase cleavage [3]: 1000 to 2000 ng/mL
- EGCG in human plasma [4]: approximately 400 ng/ml
